From PubChem BioAssay (NCI)
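Following 48 hours of exposure in 96-well plates, responses at five concentrations were used to interpolate endpoints linearly. GI50: concentration for 50% inhibition of growth. TGI denotes the concentration required for complete inhibition of growth.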

How the values were obtained:
Assay in all cases: inhibition of tumour cell growth, NCI panel, 48 h
[1] = tested on: 786-0 renal
[2] = tested on: A498 renal
[3] = tested on: A549 NSCLC
[4] = tested on: ACHN renal
[5] = tested on: BT-549 breast
[6] = tested on: CAKI-1 renal
[7] = tested on: CCRF-CEM leukemia
[8] = tested on: COLO 205 colon
[9] = tested on: DU-145 prostate
[10] = tested on: EKVX NSCLC
[11] = tested on: HCC-2998 colon
[12] = tested on: HCT-116 colon
[13] = tested on: HCT-15 colon
[14] = tested on: HL-60(TB) leukemia
[15] = tested on: HOP-62 NSCLC
[16] = tested on: HOP-92 NSCLC
[17] = tested on: HS 578T breast
[18] = tested on: HT29 colon
[19] = tested on: IGROV1 ovarian
[20] = tested on: K-562 leukemia
[21] = tested on: KM12 colon
[22] = tested on: LOX IMVI melanoma
[23] = tested on: M14 melanoma
[24] = tested on: MALME-3M melanoma
[25] = tested on: MCF7 breast
[26] = tested on: MDA-MB-231 breast
[27] = tested on: MDA-MB-435
[28] = tested on: MOLT-4 leukemia
[29] = tested on: NCI-H226 lung
[30] = tested on: NCI-H23 lung
[31] = tested on: NCI-H460 lung
[32] = tested on: NCI-H522 lung
[33] = tested on: NCI/ADR-RES ovarian
[34] = tested on: OVCAR-3 ovarian
[35] = tested on: OVCAR-4 ovarian
[36] = tested on: OVCAR-5 ovarian
[37] = tested on: OVCAR-8 ovarian
[38] = tested on: PC-3 prostate
[39] = tested on: RPMI-8226 leukemia
[40] = tested on: RXF 393 renal
[41] = tested on: SF-268 CNS
[42] = tested on: SF-295 CNS
[43] = tested on: SF-539 CNS
[44] = tested on: SK-MEL-2 melanoma
[45] = tested on: SK-MEL-28 melanoma
[46] = tested on: SK-MEL-5 melanoma
[47] = tested on: SK-OV-3 ovarian
[48] = tested on: SN12C renal
[49] = tested on: SNB-19 CNS
[50] = tested on: SNB-75 CNS
[51] = tested on: SR leukemia
[52] = tested on: SW-620 colon
[53] = tested on: T-47D breast
[54] = tested on: TK-10 renal
[55] = tested on: U251 CNS
[56] = tested on: UACC-257 melanoma
[57] = tested on: UACC-62 melanoma
[58] = tested on: UO-31 renal

For `O=C(Nc1ccc(/C=C/c2ccc(NC(=O)c3cc(S(=O)(=O)O)c4cccnc4c3O)cc2S(=O)(=O)O)c(S(=O)(=O)O)c1)c1cc(S(=O)(=O)O)c2cccnc2c1O`, the GI50 [1] was 4.86 µM, the TGI [1] was > 54.5 µM and the GI50 [2] was 46.6 µM. The TGI [2] was > 64.4 µM, the GI50 [3] was 9.49 µM and the TGI [3] was > 56 µM. For the same compound, the GI50 [4] was 3.37 µM, the TGI [4] was > 15.8 µM and the GI50 [5] was 21.8 µM. For the same compound, the TGI [5] was > 79.8 µM, the GI50 [6] was 34.3 µM and the TGI [6] was > 75.2 µM. The GI50 [7] was 3.15 µM, the TGI [7] was > 29.1 µM and the GI50 [8] was 19.9 µM. For the same compound, the TGI [8] was > 57.5 µM, the GI50 [9] was 17.7 µM and the TGI [9] was > 50.7 µM. The GI50 [10] was > 50.9 µM, the TGI [10] was > 80.5 µM and the GI50 [11] was 97.6 µM. The TGI [11] was > 100 µM, the GI50 [12] was 4.54 µM and the TGI [12] was > 43.3 µM. For the same compound, the GI50 [13] was > 41.6 µM, the TGI [13] was > 71.5 µM and the GI50 [14] was 0.337 µM. For the same compound, the TGI [14] was 3.2 µM, the GI50 [15] was 10.9 µM and the TGI [15] was > 66.1 µM. The GI50 [16] was 28.5 µM, the TGI [16] was 89.4 µM and the GI50 [17] was > 53.1 µM. For the same compound, the TGI [17] was > 74.8 µM, the GI50 [18] was 32.1 µM and the TGI [18] was > 100 µM. The GI50 [19] was 18.5 µM, the TGI [19] was > 60.2 µM and the GI50 [20] was 12 µM. The TGI [20] was > 75.2 µM, the GI50 [21] was 42.8 µM and the TGI [21] was > 67.7 µM. The GI50 [22] was 3.07 µM, the TGI [22] was > 28 µM and the GI50 [23] was 7.18 µM. For the same compound, the TGI [23] was > 49 µM, the GI50 [24] was 34.4 µM and the TGI [24] was > 62.6 µM. The GI50 [25] was 38.5 µM, the TGI [25] was > 100 µM and the GI50 [26] was 16.3 µM. For the same compound, the TGI [26] was > 68.4 µM, the GI50 [27] was > 56.7 µM and the TGI [27] was > 74.1 µM. The GI50 [28] was 1.69 µM, the TGI [28] was > 28.7 µM and the GI50 [29] was 6.29 µM. The TGI [29] was 47.5 µM, the GI50 [30] was 6.65 µM and the TGI [30] was > 42 µM. The GI50 [31] was 22.9 µM, the TGI [31] was > 76.9 µM and the GI50 [32] was 15.3 µM. For the same compound, the TGI [32] was 47 µM, the GI50 [33] was > 56.2 µM and the TGI [33] was > 100 µM. For the same compound, the GI50 [34] was > 56.9 µM, the TGI [34] was > 72.2 µM and the GI50 [35] was > 54.4 µM. For the same compound, the TGI [35] was > 75.2 µM, the GI50 [36] was > 20.2 µM and the TGI [36] was > 56.9 µM. The GI50 [37] was 9.66 µM, the TGI [37] was > 72.4 µM and the GI50 [38] was 32.2 µM. For the same compound, the TGI [38] was > 78.3 µM, the GI50 [39] was 27 µM and the TGI [39] was > 65.2 µM. For the same compound, the GI50 [40] was 20.9 µM, the TGI [40] was > 53.6 µM and the GI50 [41] was 7.99 µM. The TGI [41] was > 100 µM, the GI50 [42] was 34.4 µM and the TGI [42] was > 76.8 µM. The GI50 [43] was 11.3 µM, the TGI [43] was > 54.9 µM and the GI50 [44] was > 53.8 µM. For the same compound, the TGI [44] was > 69.7 µM, the GI50 [45] was 25.5 µM and the TGI [45] was > 62.7 µM. For the same compound, the GI50 [46] was 50.2 µM, the TGI [46] was > 64.3 µM and the GI50 [47] was > 38.9 µM. For the same compound, the TGI [47] was > 100 µM, the GI50 [48] was 4.36 µM and the TGI [48] was > 59.2 µM. The GI50 [49] was 12.2 µM, the TGI [49] was > 100 µM and the GI50 [50] was 8.18 µM. The TGI [50] was 48.7 µM, the GI50 [51] was 0.0205 µM and the TGI [51] was 0.17 µM. The GI50 [52] was 17.8 µM, the TGI [52] was > 83.8 µM and the GI50 [53] was > 49.6 µM. For the same compound, the TGI [53] was > 100 µM, the GI50 [54] was 48.4 µM and the TGI [54] was > 71.4 µM. The GI50 [55] was 3.32 µM, the TGI [55] was > 22.4 µM and the GI50 [56] was 25.8 µM. For the same compound, the TGI [56] was > 56.3 µM, the GI50 [57] was 2.5 µM and the TGI [57] was 37.6 µM. The GI50 [58] was 24.5 µM and the TGI [58] was > 69 µM.
